Experimental data taken from ChEMBL document CHEMBL4052760, “Synthesis, antioxidant and antiproliferative activities of 1,3,4-thiadiazoles derived from phenolic acids” (Bioorg Med Chem Lett, 2017).
Activity calls are given as the source filed them. No cut-off for these calls is given here.

Tests used:
MRC5 = experiment: Cytotoxicity against human MRC5 cells after 72 hrs by MTT assay; format: cell-based; settings: MRC5, 72 h
A549 = experiment: Cytotoxicity against human A549 cells after 72 hrs by MTT assay; format: functional, cell-based; settings: A549, 72 h
HL-60 [1] = experiment: Cytotoxicity against human HL60 cells after 72 hrs by MTT assay; format: functional, cell-based; settings: HL-60, 72 h
HeLa = experiment: Cytotoxicity against human HeLa cells after 72 hrs by MTT assay; format: functional, cell-based
[2] = Antioxidant activity assessed as DPPH radical scavenging activity after 30 mins in absence of light; format: functional
HL-60 [3] = experiment: Cytoprotective activity against H2O2-induced oxidative stress in human HL60 cells assessed as decrease in level of reactive oxygen species pretreated for 24 hrs at 6.25 uM followed by H2O2-stimulation for 30 mins by DCFH-DA staining-based FACS analysis; format: functional, cell-based
HL-60 [4] = experiment: Induction of cell death in human HL60 cells assessed as decrease in percentage of cells in subG1 phase at 2 times IC50 pretreated for 72 hrs followed by caspase-8 inhibitor Z-IETD-FMK addition measured after 24 hrs by propidium iodide-staining based FACS analysis; format: functional
HL-60 [5] = experiment: Induction of cell death in human HL60 cells assessed as decrease in percentage of cells in subG1 phase at 2 times IC50 pretreated for 72 hrs followed by caspase-3 inhibitor Z-DEVD-FMK addition measured after 24 hrs by propidium iodide-staining based FACS analysis; format: functional
HL-60 [6] = experiment: Induction of apoptosis in human HL60 cells assessed as nuclear fragmentation at 2 times IC50 measured after 24 hrs by acridine orange/ethidium bromide staining-based fluorescence microscopic method; format: functional, cell-based
EA.hy 926 [7] = experiment: Antiangiogenic activity against human EAhy926 cells assessed as inhibition of capillary-like tube formation at 50 uM measured after 20 hrs by inverted phase contrast microscopic analysis; format: functional, cell-based
HL-60 [8] = experiment: Induction of cell death in human HL60 cells assessed as decrease in percentage of cells in subG1 phase at 2 times IC50 pretreated for 72 hrs followed by caspase-9 inhibitor Z-LEHD-FMK addition measured after 24 hrs by propidium iodide-staining based FACS analysis; format: functional
HL-60 [9] = experiment: Downregulation of VEGFA in human HL60 cells assessed as decrease in mRNA expression levels at 6.5 uM after 24 hrs by RT-PCR analysis; format: functional, cell-based
HL-60 [10] = experiment: Downregulation of MMP2 in human HL60 cells assessed as decrease in mRNA expression levels at 6 uM after 24 hrs by RT-PCR analysis; format: functional, cell-based
HL-60 [11] = experiment: Induction of apoptosis in human HL60 cells assessed as chromatin condensation at 2 times IC50 measured after 24 hrs by acridine orange/ethidium bromide staining-based fluorescence microscopic method; format: functional, cell-based
HL-60 [12] = experiment: Downregulation of MMP2 in human HL60 cells assessed as decrease in mRNA expression levels at 6.5 uM after 24 hrs by RT-PCR analysis; format: functional, cell-based
HL-60 [13] = experiment: Downregulation of MMP9 in human HL60 cells assessed as decrease in mRNA expression levels at 6 uM after 24 hrs by RT-PCR analysis; format: functional, cell-based
HL-60 [14] = experiment: Downregulation of VEGFA in human HL60 cells assessed as decrease in mRNA expression levels at 6 uM after 24 hrs by RT-PCR analysis; format: functional, cell-based
HL-60 [15] = experiment: Downregulation of MMP9 in human HL60 cells assessed as decrease in mRNA expression levels at 6.5 uM after 24 hrs by RT-PCR analysis; format: functional, cell-based
HL-60 [16] = experiment: Induction of apoptosis in human HL60 cells assessed as secondary necrosis at 2 times IC50 measured after 24 hrs by acridine orange/ethidium bromide staining-based fluorescence microscopic method; format: functional, cell-based
HL-60 [17] = experiment: Cytoprotective activity against H2O2-induced oxidative stress in human HL60 cells assessed as decrease in level of reactive oxygen species pretreated for 24 hrs at 6.5 uM followed by H2O2-stimulation for 30 mins by DCFH-DA staining-based FACS analysis; format: functional, cell-based
EA.hy 926 [18] = experiment: Antiangiogenic activity against human EAhy926 cells assessed as inhibition of capillary-like tube formation at 30 uM measured after 20 hrs by inverted phase contrast microscopic analysis; format: functional, cell-based
HL-60 [19] = experiment: Cell cycle arrest in human HL60 cells assessed as accumulation at subG1 phase at IC50 after 24 hrs by FACS analysis; format: functional, cell-based
HL-60 [20] = experiment: Cytoprotective activity against H2O2-induced oxidative stress in human HL60 cells assessed as decrease in level of reactive oxygen species pretreated for 24 hrs at 6 uM followed by H2O2-stimulation for 30 mins by DCFH-DA staining-based FACS analysis; format: functional, cell-based
HL-60 [21] = experiment: Cell cycle arrest in human HL60 cells assessed as accumulation at subG1 phase at 2 times IC50 after 24 hrs by FACS analysis; format: functional, cell-based

| IC50 [2] [µM] | SMILES | IC50 (MRC5) [µM] | IC50 (A549) [µM] | IC50 (HL-60 [1]) [µM] | IC50 (HeLa) [µM] | also measured |
| --- | --- | --- | --- | --- | --- | --- |
| 23.4 | O=C(Nc1nnc(-c2ccc(O)c(O)c2)s1)c1ccccc1 | 27.4 | 13 | 17.6 | 23.3 |  |
| 23.4 | CC(=O)Nc1nnc(-c2ccc(O)c(O)c2)s1 | 58.6 | 133 | 42.5 | 125 |  |
| 53 | O=C(Nc1nnc(-c2ccc(O)c(O)c2)s1)c1ccc(Cl)cc1 | 30.6 | 14.6 | 14.7 | 47.3 |  |
| 16.6 | O=C(COc1ccccc1)Nc1nnc(-c2cccc(O)c2O)s1 | 33.9 | 10.5 | 11.2 | 117 | Activity (HL-60 [3]): Active |
| 38 | O=C1O[C@H]([C@@H](O)CO)C(O)=C1O [ASCORBIC ACID] |  |  |  |  |  |
| 30.2 | O=C(Nc1nnc(-c2cccc(O)c2O)s1)c1ccc(Cl)cc1 | 18.7 | 9.5 | 9.6 | 13 | Activity (HL-60 [4]): Active; Activity (HL-60 [5]): Active; Activity (HL-60 [6]): Active; Activity (EA.hy 926 [7]): Active; Activity (HL-60 [8]): inactive; Activity (HL-60 [9]): Active; Activity (HL-60 [10]): Active; Activity (HL-60 [11]): Active; Activity (HL-60 [12]): Active; Activity (HL-60 [13]): inactive; Activity (HL-60 [14]): Active; Activity (HL-60 [15]): inactive; Activity (HL-60 [16]): Active |
| 20.9 | O=C(Cc1ccccc1)Nc1nnc(-c2cccc(O)c2O)s1 | 45.3 | 11.8 | 13.9 | 120 |  |
| 36.1 | O=C(COc1ccccc1)Nc1nnc(-c2ccc(O)c(O)c2)s1 | 30.9 | 21.2 | 17.4 | 51.3 |  |
| 34 | Cc1ccc(C(=O)Nc2nnc(-c3ccc(O)c(O)c3)s2)cc1 | 27.1 | 11.8 | 10.5 | 67.1 |  |
| 21.3 | O=C(Cc1ccccc1)Nc1nnc(-c2ccc(O)c(O)c2)s1 | 30.7 | 15.4 | 12 | 88.6 |  |
| 27.1 | Cc1ccc(C(=O)Nc2nnc(-c3cccc(O)c3O)s2)cc1 | 33.2 | 11.3 | 10.6 | 13.4 | Activity (HL-60 [4]): Active; Activity (HL-60 [5]): Active; Activity (HL-60 [6]): Active; Activity (EA.hy 926 [7]): Active; Activity (HL-60 [8]): inactive; Activity (HL-60 [9]): Active; Activity (HL-60 [10]): Active; Activity (HL-60 [11]): Active; Activity (HL-60 [12]): Active; Activity (HL-60 [13]): inactive; Activity (HL-60 [14]): Active; Activity (HL-60 [15]): inactive; Activity (HL-60 [16]): Active |
| 37.3 | O=C(Nc1nnc(-c2ccc(O)c(O)c2)s1)C1CCCCC1 | 24 | 16.3 | 8.8 | 34.5 |  |
| 17.9 | O=C(Nc1nnc(-c2ccc(O)c(O)c2)s1)C12CC3CC(CC(C3)C1)C2 | 20.1 | 13 | 7.4 | 16.1 | Activity (HL-60 [4]): Active; Activity (HL-60 [5]): Active; Activity (HL-60 [6]): Active; Activity (HL-60 [17]): Active; Activity (HL-60 [8]): inactive; Activity (HL-60 [9]): Active; Activity (HL-60 [10]): Active; Activity (HL-60 [11]): Active; Activity (HL-60 [12]): Active; Activity (HL-60 [13]): inactive; Activity (HL-60 [14]): Active; Activity (EA.hy 926 [18]): Active; Activity (HL-60 [15]): inactive; Activity (HL-60 [16]): Active |
| 20.8 | CC(Cc1ccc(O)c(O)c1)C(C)Cc1ccc(O)c(O)c1 (stereo not given) [NORDIHYDROGUAIARETIC ACID] |  |  |  |  |  |
| 111 | CC(=O)Nc1nnc(-c2cccc(O)c2O)s1 | 156 | 200 | 49 | 177 |  |
| 19.9 | O=C(Nc1nnc(-c2cccc(O)c2O)s1)C1CCCCC1 | 70.3 | 11 | 7.9 | 91.6 | Activity (HL-60 [3]): Active |
| 14.2 | O=C(Nc1nnc(-c2cccc(O)c2O)s1)C12CC3CC(CC(C3)C1)C2 | 27.7 | 12.8 | 7.3 | 21.4 | Activity (HL-60 [4]): Active; Activity (HL-60 [19]): Active; Activity (HL-60 [5]): Active; Activity (HL-60 [6]): Active; Activity (HL-60 [8]): inactive; Activity (HL-60 [9]): Active; Activity (HL-60 [10]): Active; Activity (HL-60 [11]): Active; Activity (HL-60 [20]): Active; Activity (HL-60 [12]): Active; Activity (HL-60 [13]): inactive; Activity (HL-60 [14]): Active; Activity (EA.hy 926 [18]): Active; Activity (HL-60 [21]): Active; Activity (HL-60 [15]): inactive; Activity (HL-60 [16]): Active |
| 22.3 | O=C(Nc1nnc(-c2cccc(O)c2O)s1)c1ccccc1 | 23.2 | 12.3 | 20.7 | 21.8 |  |
